The numbers were not newly measured in patent US7745108B2, “Method for identifying terpene synthase” (The Regents of the University of California, priority 2003, dated 2010), which cites them from elsewhere.

Data set [1] deals with T1, taxadiene synthase (Taxus brevifolia, UniProt Q41594).
T1 sequence (Q41594 61-862 limits assumed): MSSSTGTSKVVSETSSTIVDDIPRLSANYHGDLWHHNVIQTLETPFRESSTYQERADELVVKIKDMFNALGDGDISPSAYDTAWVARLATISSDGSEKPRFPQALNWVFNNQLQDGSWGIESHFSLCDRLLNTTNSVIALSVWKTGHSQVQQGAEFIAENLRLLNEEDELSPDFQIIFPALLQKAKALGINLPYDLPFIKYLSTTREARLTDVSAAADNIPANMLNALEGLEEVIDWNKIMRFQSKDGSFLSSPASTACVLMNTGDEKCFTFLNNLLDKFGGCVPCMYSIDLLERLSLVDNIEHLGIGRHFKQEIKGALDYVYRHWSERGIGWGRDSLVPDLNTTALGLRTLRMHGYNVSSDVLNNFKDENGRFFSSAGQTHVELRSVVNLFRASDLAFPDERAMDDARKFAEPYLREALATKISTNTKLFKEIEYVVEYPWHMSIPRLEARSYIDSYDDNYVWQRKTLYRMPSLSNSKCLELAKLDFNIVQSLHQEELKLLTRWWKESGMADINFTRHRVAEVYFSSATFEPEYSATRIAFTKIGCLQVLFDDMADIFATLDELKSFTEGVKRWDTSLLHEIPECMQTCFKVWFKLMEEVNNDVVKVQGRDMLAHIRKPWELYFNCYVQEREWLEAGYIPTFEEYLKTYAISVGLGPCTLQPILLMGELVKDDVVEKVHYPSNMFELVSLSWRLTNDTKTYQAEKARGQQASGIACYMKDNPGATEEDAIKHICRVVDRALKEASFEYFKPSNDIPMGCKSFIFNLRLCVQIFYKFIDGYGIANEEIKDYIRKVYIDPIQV

The test system of data set [2] is monoterpene synthases. Particulars: all twelve monoterpene synthases tested.

Regarding “cyclopropylidene geranylgeranyl diphosphate [CP-GGPP]”, the “covalent modification and inhibition of taxadiene synthase” value in data set [1] was “unsuccessful in covalently modifying and inhibiting”. As to “cyclopropylidene geranyl diphosphate [CP-GPP]”, the “sensitivity of monoterpene synthases to the inhibitor” value in data set [2] is “sensitive”.
